Biological target: Btk enzyme (His-Btk) (Homo sapiens (Human), UniProt Q06187)
Experiment: Btk enzyme activity, IMAP fluorescence polarization assay
Settings: 60 min pre-incubation, 5 μM ATP, bin bounds in nM

Sequence of Btk enzyme (His-Btk) (Q06187 whole entry): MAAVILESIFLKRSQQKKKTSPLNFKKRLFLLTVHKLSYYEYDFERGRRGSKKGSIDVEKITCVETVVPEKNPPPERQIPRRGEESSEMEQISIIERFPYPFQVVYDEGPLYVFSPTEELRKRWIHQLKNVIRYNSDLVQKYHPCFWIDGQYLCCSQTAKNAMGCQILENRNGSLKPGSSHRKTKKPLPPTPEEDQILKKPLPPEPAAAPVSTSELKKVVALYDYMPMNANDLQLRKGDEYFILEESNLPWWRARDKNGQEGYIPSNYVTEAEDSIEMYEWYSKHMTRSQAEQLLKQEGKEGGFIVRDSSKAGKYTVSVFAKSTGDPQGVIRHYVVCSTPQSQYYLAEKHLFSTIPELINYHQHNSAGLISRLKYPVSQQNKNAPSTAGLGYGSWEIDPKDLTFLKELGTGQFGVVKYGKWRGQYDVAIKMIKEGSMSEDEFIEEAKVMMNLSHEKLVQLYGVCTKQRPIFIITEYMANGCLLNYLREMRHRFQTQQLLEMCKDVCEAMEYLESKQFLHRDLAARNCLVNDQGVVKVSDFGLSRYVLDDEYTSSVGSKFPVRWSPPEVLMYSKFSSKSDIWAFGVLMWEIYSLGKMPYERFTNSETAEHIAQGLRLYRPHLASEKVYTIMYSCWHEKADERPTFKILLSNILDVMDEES

| EC50 Btk activity values [nM] | SMILES |
| --- | --- |
| <100 | CC#CC(=O)N1CCCC[C@H]1c1nc(-c2ccc(C(=O)Nc3nccc(C)n3)cc2)c2c(N)nccn12 [Example 89, (S)-4-(8-amino-3-(1-but-2-ynoylpiperidin-2-yl)imidazo[1,5-a]pyrazin-1-yl)-N-(4-methylpyrimidin-2-yl)benzamide] |
| <100 | CC#CC(=O)N1CCC[C@H]1c1nc(-c2ccc(C(=O)Nc3cc(N4CCCC4)ccn3)cc2)c2c(N)nccn12 [Example 96, (S)-4-(8-amino-3-(1-but-2-ynoylpyrrolidin-2-yl)imidazo[1,5-a]pyrazin-1-yl)-N-(4-(pyrrolidin-1-yl)pyridin-2-yl)benzamide] |
| <100 | CC#CC(=O)N1CCC[C@H]1c1nc(-c2ccc(C(=O)Nc3cc(F)ccn3)cc2)c2c(N)nccn12 [Example 106, (S)-4-(8-amino-3-(1-but-2-ynoylpyrrolidin-2-yl)imidazo[1,5-a]pyrazin-1-yl)-N-(4-fluoropyridin-2-yl)benzamide] |
| <100 | CC#CC(=O)N(C)[C@@H](C)c1nc(-c2ccc(C(=O)Nc3cc(CCC)ccn3)cc2)c2c(N)nccn12 [Example 113, (S)-4-(8-amino-3-(1-(N-methylbut-2-ynamido)ethyl)imidazo[1,5-a]pyrazin-1-yl)-N-(4-propylpyridin-2-yl)benzamide] |

The remaining lines, values behind:

| SMILES | EC50 Btk activity values [nM] |
| --- | --- |
| Nc1nccn2c([C@@H]3CCCN3C(=O)c3ccnc(Cl)n3)nc(-c3ccc(C(=O)Nc4ccccn4)c(F)c3)c12 [Example 84, (S)-4-(8-amino-3-(1-(2-chloropyrimidine-4-carbonyl)pyrrolidin-2-yl)imidazo[1,5-a]pyrazin-1-yl)-2-fluoro-N-(pyridin-2-yl)benzamide] | <100 |
| COC/C=C/C(=O)NCc1nc(-c2ccc(C(=O)Nc3ccccn3)cc2)c2c(N)nccn12 [Example 95, (E)-4-(8-amino-3-((4-methoxybut-2-enamido)methyl)imidazo[1,5-a]pyrazin-1-yl)-N-(pyridin-2-yl)benzamide] | <100 |
| COC/C=C/C(=O)N1CCC[C@H]1c1nc(-c2ccc(C(=O)Nc3cc(C#N)ccn3)cc2)c2c(N)nccn12 [Example 98, (S,E)-4-(8-amino-3-(1-(4-methoxybut-2-enoyl)pyrrolidin-2-yl)imidazo[1,5-a]pyrazin-1-yl)-N-(4-cyanopyridin-2-yl)benzamide] | <100 |
| CC#CC(=O)N1CCC[C@H]1c1nc(-c2ccc(C(=O)Nc3ccccn3)c(OC)c2)c2c(N)nccn12 [Example 99, (S)-4-(8-amino-3-(1-but-2-ynoylpyrrolidin-2-yl)imidazo[1,5-a]pyrazin-1-yl)-2-methoxy-N-(pyridin-2-yl)benzamide] | <100 |
| COC/C=C/C(=O)N1CCC[C@H]1c1nc(-c2ccc(C(=O)Nc3ccccn3)c(OC)c2)c2c(N)nccn12 [Example 103, (S,E)-4-(8-amino-3-(1-(4-methoxybut-2-enoyl)pyrrolidin-2-yl)imidazo[1,5-a]pyrazin-1-yl)-2-methoxy-N-(pyridin-2-yl)benzamide] | <100 |
| C[C@H](NC(=O)c1ccnc(Cl)n1)c1nc(-c2ccc(C(=O)Nc3ccccn3)cc2)c2c(N)nccn12 [Example 105, (S)-N-(1-(8-amino-1-(4-(pyridin-2-ylcarbamoyl)phenyl)imidazo[1,5-a]pyrazin-3-yl)ethyl)-2-chloropyrimidine-4-carboxamide] | <100 |
| CC#CC(=O)NCc1nc(-c2ccc(C(=O)Nc3ccccn3)cc2)c2c(N)nccn12 [Example 112, 4-(8-amino-3-(but-2-ynamidomethyl)imidazo[1,5-a]pyrazin-1-yl)-N-(pyridin-2-yl)benzamide] | <100 |
| CCCc1ccnc(NC(=O)c2ccc(-c3nc([C@@H]4CCCCN4C(=O)/C=C/COC)n4ccnc(N)c34)cc2F)c1 [Example 114, (S,E)-4-(8-amino-3-(1-(4-methoxybut-2-enoyl)piperidin-2-yl)imidazo[1,5-a]pyrazin-1-yl)-2-fluoro-N-(4-propylpyridin-2-yl)benzamide] | <100 |
| Nc1nccn2c([C@@H]3CCCN3C(=O)c3ccnc(Cl)n3)nc(-c3ccc(C(=O)Nc4cc(C(F)(F)F)ccn4)cc3)c12 [Example 119, (S)-4-(8-amino-3-(1-(2-chloropyrimidine-4-carbonyl)pyrrolidin-2-yl)imidazo[1,5-a]pyrazin-1-yl)-N-(4-(trifluoromethyl)pyridin-2-yl)benzamide] | <100 |

Same assay, conditions: 60 min pre-incubation, 5 μM ATP, bin bounds in μM

| EC50 Btk activity values [nM] | SMILES |
| --- | --- |
| <1000 | COC/C=C/C(=O)N1CCCC[C@H]1c1nc(-c2ccc(C(=O)Nc3ccccn3)cc2C)c2c(N)nccn12 [Example 85, 4-(8-amino-3-((S)-1-((E)-4-methoxybut-2-enoyl)piperidin-2-yl)imidazo[1,5-a]pyrazin-1-yl)-3-methyl-N-(pyridin-2-yl)benzamide] |
| <1000 | COC/C=C/C(=O)N1CCCC[C@H]1c1nc(-c2ccc(C(=O)Nc3ccncn3)cc2)c2c(N)nccn12 [Example 86, (S,E)-4-(8-amino-3-(1-(4-methoxybut-2-enoyl)piperidin-2-yl)imidazo[1,5-a]pyrazin-1-yl)-N-(pyrimidin-4-yl)benzamide] |
| <1000 | CCCc1ccnc(NC(=O)c2ccc(-c3nc([C@@H]4CCCN4C(=O)/C=C/COC)n4ccnc(N)c34)c(C)c2)c1 [Example 87, 4-(8-amino-3-((S)-1-((E)-4-methoxybut-2-enoyl)pyrrolidin-2-yl)imidazo[1,5-a]pyrazin-1-yl)-3-methyl-N-(4-propylpyridin-2-yl)benzamide] |
| <1000 | COC/C=C/C(=O)N1CCCC[C@H]1c1nc(-c2ccc(C(=O)Nc3nccc(C)n3)cc2)c2c(N)nccn12 [Example 88, (S,E)-4-(8-amino-3-(1-(4-methoxybut-2-enoyl)piperidin-2-yl)imidazo[1,5-a]pyrazin-1-yl)-N-(4-methylpyrimidin-2-yl)benzamide] |
| <1000 | Nc1nccn2c([C@@H]3CCCCN3C(=O)c3ccnc(Cl)n3)nc(-c3ccc(C(=O)Nc4ncccn4)cc3)c12 [Example 90, (S)-4-(8-amino-3-(1-(2-chloropyrimidine-4-carbonyl)piperidin-2-yl)imidazo[1,5-a]pyrazin-1-yl)-N-(pyrimidin-2-yl)benzamide] |
| <1000 | C=C(C(=O)N1CCC[C@H]1c1nc(-c2ccc(C(=O)Nc3ccccn3)cc2)c2c(N)nccn12)C(F)(F)F [Example 92, (S)-4-(8-amino-3-(1-(2-(trifluoromethyl)acryloyl)pyrrolidin-2-yl)imidazo[1,5-a]pyrazin-1-yl)-N-(pyridin-2-yl)benzamide] |
| <1000 | N#CCN1CCC[C@H]1c1nc(-c2ccc(C(=O)Nc3ccccn3)cc2)c2c(N)nccn12 [Example 94, (S)-4-(8-amino-3-(1-(cyanomethyl)pyrrolidin-2-yl)imidazo[1,5-a]pyrazin-1-yl)-N-(pyridin-2-yl)benzamide] |
| <1000 | Nc1nccn2c([C@@H]3CCCN3C(=O)/C=C/c3ccccc3)nc(-c3ccc(C(=O)Nc4ccccn4)cc3)c12 [Example 104, (S,E)-4-(8-amino-3-(1-cinnamoylpyrrolidin-2-yl)imidazo[1,5-a]pyrazin-1-yl)-N-(pyridin-2-yl)benzamide] |

Biological target: Lck enzyme (Homo sapiens (Human), UniProt P06239)
Sequence (P06239 whole entry): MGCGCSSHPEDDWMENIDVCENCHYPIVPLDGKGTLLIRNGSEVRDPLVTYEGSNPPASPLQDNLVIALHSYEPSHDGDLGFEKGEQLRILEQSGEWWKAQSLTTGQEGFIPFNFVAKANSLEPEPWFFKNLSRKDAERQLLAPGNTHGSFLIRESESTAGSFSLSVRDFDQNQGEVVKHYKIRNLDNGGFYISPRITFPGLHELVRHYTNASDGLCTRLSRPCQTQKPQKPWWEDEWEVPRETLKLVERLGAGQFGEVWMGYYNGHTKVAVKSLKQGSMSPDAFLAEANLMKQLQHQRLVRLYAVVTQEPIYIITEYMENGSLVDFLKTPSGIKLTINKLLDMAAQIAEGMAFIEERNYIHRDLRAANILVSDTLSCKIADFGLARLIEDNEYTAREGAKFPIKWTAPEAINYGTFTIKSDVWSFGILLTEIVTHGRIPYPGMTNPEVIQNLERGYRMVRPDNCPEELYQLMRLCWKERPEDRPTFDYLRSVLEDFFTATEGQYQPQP
Experiment: Lck enzyme activity, IMAP fluorescence polarization assay
Settings: 60 min pre-incubation, 6 μM ATP, bin bounds in μM

| EC50 Lck activity values [µM] | SMILES |
| --- | --- |
| <1 | CC#CC(=O)N1CCCC[C@H]1c1nc(-c2ccc(C(=O)Nc3cc(CCC)ccn3)cc2)c2c(N)nccn12 [Example 64, (S)-4-(8-amino-3-(1-but-2-ynoylpiperidin-2-yl)imidazo[1,5-a]pyrazin-1-yl)-N-(4-propylpyridin-2-yl)benzamide] |
| <1 | C=CC(=O)N1CCC[C@H]1c1nc(-c2ccc(C(=O)Nc3cc(C#N)ccn3)cc2)c2c(N)nccn12 [Example 122, (S)-4-(3-(1-acryloylpyrrolidin-2-yl)-8-aminoimidazo[1,5-a]pyrazin-1-yl)-N-(4-cyanopyridin-2-yl)benzamide] |
| <1 | C=CC(=O)N1CCC[C@H]1c1nc(-c2ccc(C(=O)Nc3cc(C)ccn3)cc2)c2c(N)nccn12 [Example 124, (S)-4-(3-(1-acryloylpyrrolidin-2-yl)-8-aminoimidazo[1,5-a]pyrazin-1-yl)-N-(4-methylpyridin-2-yl)benzamide] |
| <1 | C=CC(=O)N1CCC[C@H]1c1nc(-c2ccc(C(=O)Nc3cc(CCC)ccn3)cc2)c2c(N)nccn12 [Example 125, (S)-4-(3-(1-acryloylpyrrolidin-2-yl)-8-aminoimidazo[1,5-a]pyrazin-1-yl)-N-(4-propylpyridin-2-yl)benzamide] |
| <1 | CC#CC(=O)N1CCC[C@H]1c1nc(-c2ccc(C(=O)Nc3cc(-c4ccccc4)ccn3)cc2)c2c(N)nccn12 [Example 132, (S)-4-(8-amino-3-(1-but-2-ynoylpyrrolidin-2-yl)imidazo[1,5-a]pyrazin-1-yl)-N-(4-phenylpyridin-2-yl)benzamide] |

More lines, now with the values behind:

| SMILES | EC50 Lck activity values [µM] |
| --- | --- |
| C=CC(=O)N1CCC[C@H]1c1nc(-c2ccc(C(=O)Nc3cc(C(F)(F)F)ccn3)cc2)c2c(N)nccn12 [Example 62, (S)-4-(3-(1-acryloylpyrrolidin-2-yl)-8-aminoimidazo[1,5-a]pyrazin-1-yl)-N-(4-(trifluoromethyl)pyridin-2-yl)benzamide] | <1 |
| CCCc1ccnc(NC(=O)c2ccc(-c3nc([C@H](C)N(C)C(=O)/C=C/CN(C)C)n4ccnc(N)c34)cc2)c1 [Example 76, (S,E)-4-(8-amino-3-(1-(4-(dimethylamino)-N-methylbut-2-enamido)ethyl)imidazo[1,5-a]pyrazin-1-yl)-N-(4-propylpyridin-2-yl)benzamide] | <1 |
| Nc1nccn2c([C@@H]3CCCN3C(=O)/C=C/c3ccccc3)nc(-c3ccc(C(=O)Nc4ccccn4)cc3)c12 [Example 104, (S,E)-4-(8-amino-3-(1-cinnamoylpyrrolidin-2-yl)imidazo[1,5-a]pyrazin-1-yl)-N-(pyridin-2-yl)benzamide] | <1 |

Biological target: Lyn enzyme (Homo sapiens (Human), UniProt P07948)
Sequence (P07948 whole entry): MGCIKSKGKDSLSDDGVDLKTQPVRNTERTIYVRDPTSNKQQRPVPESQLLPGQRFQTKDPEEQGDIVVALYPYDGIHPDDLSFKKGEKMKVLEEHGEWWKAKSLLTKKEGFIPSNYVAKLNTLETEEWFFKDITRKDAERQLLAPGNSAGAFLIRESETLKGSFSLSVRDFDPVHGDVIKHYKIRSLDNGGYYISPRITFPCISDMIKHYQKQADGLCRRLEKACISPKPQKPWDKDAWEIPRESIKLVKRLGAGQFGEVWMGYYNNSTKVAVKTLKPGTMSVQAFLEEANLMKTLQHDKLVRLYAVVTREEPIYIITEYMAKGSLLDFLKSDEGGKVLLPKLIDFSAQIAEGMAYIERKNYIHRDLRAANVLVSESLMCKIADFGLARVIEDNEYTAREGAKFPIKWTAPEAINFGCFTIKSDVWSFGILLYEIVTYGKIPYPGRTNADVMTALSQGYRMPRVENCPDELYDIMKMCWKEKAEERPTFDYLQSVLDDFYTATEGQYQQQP
Experiment: Lyn enzyme activity, IMAP fluorescence polarization assay
Settings: 60 min pre-incubation, 2 μM ATP, bin bounds in μM

| EC50 Lyn activity values [µM] | SMILES |
| --- | --- |
| <1 | C=CC(=O)N1CCC[C@H]1c1nc(-c2ccc(C(=O)Nc3cc(C)ccn3)cc2)c2c(N)nccn12 [Example 124, (S)-4-(3-(1-acryloylpyrrolidin-2-yl)-8-aminoimidazo[1,5-a]pyrazin-1-yl)-N-(4-methylpyridin-2-yl)benzamide] |
| <1 | C=CC(=O)N1CCC[C@H]1c1nc(-c2ccc(C(=O)Nc3cc(CCC)ccn3)cc2)c2c(N)nccn12 [Example 125, (S)-4-(3-(1-acryloylpyrrolidin-2-yl)-8-aminoimidazo[1,5-a]pyrazin-1-yl)-N-(4-propylpyridin-2-yl)benzamide] |

Reference: patent publication US10934296B2, “4-imidazopyridazin-1-yl-benzamides as Btk inhibitors” (Merck Sharp & Dohme B.V., priority 2011, dated 2021)
